Data as given in US20220363689A1, “INHIBITOR OF BTK AND MUTANTS THEREOF” (Newave Pharmaceutical Inc., priority 2019, published 2022).

Key:
Format in all cases: biochemical
[1] = biological target: T1, WT BTK (Homo sapiens, UniProt Q06187); assay: In vitro dialysis assay (irreversibility assay), WT BTK; settings: reversible or irreversible/covalent inhibition after 24 h dialysis
Experimental: The compound-enzyme complex was dialyzed against the same buffer supplemented with 40 mM ATP for 24 hr. Cumulative dialysis factor>160,000×. After dialysis, the BTK activity was measured in the presence […] and 1 mM substrate peptide and compared to that in non-dialyzed samples. Assay buffer: 100 mM HEPES, pH7.5; […]; 5 mM MgCl2; 1 mM DTT. In this study, Ibrutiib (a FDA approved irreversible BTK inhibitor) was used as a positive control and Saurosporine (a reversible BTK inhibitor) was used as a negative control.

[2] = biological target: T1, WT BTK; assay: Caliper-based kinase assay, WT BTK; settings: 0.5 nM enzyme, ATP 16 μM, room temperature 3 h; read-out: WT BTK IC50 (nM) (irreversible inhibition)
Experimental: (§1) A Caliper-based kinase assay (Caliper Life Sciences, Hopkinton, Mass.) was used to measure inhibition of WT and […] Btk kinase activity of a compound of the present disclosure. […] The reaction was then terminated with EDTA, final concentration 20 mM and the phosphorylated reaction product was quantified on a Caliper Desktop Profiler (Caliper LabChip 3000).

[3] = biological target: C481S Btk (Homo sapiens, UniProt Q06187, C481S); assay: Caliper-based kinase assay, C481S BTK; settings: 0.5 nM enzyme, ATP 16 μM, room temperature 3 h; read-out: C481S BTK IC50 (nM) (reversible inhibition)
Experimental: as §1

Chain of C481S Btk (Q06187 whole entry C481S): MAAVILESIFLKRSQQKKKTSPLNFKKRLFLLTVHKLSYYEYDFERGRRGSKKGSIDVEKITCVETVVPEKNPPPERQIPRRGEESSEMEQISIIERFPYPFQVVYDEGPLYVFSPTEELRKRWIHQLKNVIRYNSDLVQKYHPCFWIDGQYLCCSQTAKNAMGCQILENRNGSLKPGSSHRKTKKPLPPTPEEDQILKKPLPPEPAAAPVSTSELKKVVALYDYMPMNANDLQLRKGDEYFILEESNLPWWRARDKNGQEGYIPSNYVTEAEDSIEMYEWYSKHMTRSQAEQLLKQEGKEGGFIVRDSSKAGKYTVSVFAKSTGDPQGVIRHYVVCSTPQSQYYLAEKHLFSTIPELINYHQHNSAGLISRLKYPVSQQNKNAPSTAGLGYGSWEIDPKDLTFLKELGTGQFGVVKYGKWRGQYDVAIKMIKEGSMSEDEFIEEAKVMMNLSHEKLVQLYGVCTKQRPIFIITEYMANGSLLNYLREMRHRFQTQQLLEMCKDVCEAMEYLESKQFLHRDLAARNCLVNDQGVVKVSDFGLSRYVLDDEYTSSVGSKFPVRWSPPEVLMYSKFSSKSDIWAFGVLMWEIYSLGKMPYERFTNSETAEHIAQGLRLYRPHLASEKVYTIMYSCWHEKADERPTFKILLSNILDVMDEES
T1 sequence (Q06187 whole entry): as the sequence (Q06187 whole entry C481S) above, with S481C counted along it

| Structure (SMILES) | Conclusion (WT BTK) [1] | IC50 [2] [nM] | IC50 [3] [nM] |
| --- | --- | --- | --- |
| C=CC(=O)Nc1cc(Nc2nc(-c3ccnc(N4CCn5c(cc6c5CC(C)(C)C6)C4=O)c3CO)cn(C)c2=O)ccc1N1CCN(C2COC2)C[C@@H]1C [Example 3, (S)—N-(5-((6-(2-(7,7-dimethyl-1-oxo-1,3,4,6,7,8-hexahydro-2H-cyclopenta[4,5]pyrrolo[1,2-a]pyrazin-2-yl)-3-(hydroxymethyl)pyridin-4-yl)-4-methyl-3-oxo-3,4-dihydropyrazin-2-yl)amino)-2-(2-methyl-4-(oxetan-3-yl)piperazin-1-yl)phenyl)acrylamide] | Irreversible/covalent inhibition | 0.14 | 0.72 |
| C=CC(=O)Nc1cc(Nc2nc(-c3ccnc(N4CCn5c(cc6c5CC(C)(C)C6)C4=O)c3C)cn(C)c2=O)ccc1N1CCN(C2COC2)C[C@@H]1C [Example 11, (S)—N-(5-((6-(2-(7,7-dimethyl-1-oxo-1,3,4,6,7,8-hexahydro-2H-cyclopenta[4,5]pyrrolo[1,2-a]pyrazin-2-yl)-3-methylpyridin-4-yl)-4-methyl-3-oxo-3,4-dihydropyrazin-2-yl)amino)-2-(2-methyl-4-(oxetan-3-yl)piperazin-1-yl)phenyl)acrylamide] | Irreversible/covalent inhibition | 0.25 | 15.9 |
| C=CC(=O)Nc1cc(Nc2nc(-c3ccnc(N4CCn5c(cc6c5CC(C)(C)C6)C4=O)c3CO)cn(C)c2=O)cc(F)c1N1CCN(C2COC2)C[C@@H]1C [Example 30, N-(5-[[6-(2-[4,4-dimethyl-9-oxo-1,10-diazatricyclo[6.4.0.0^[2,6]]dodeca-2(6),7-dien-10-yl]-3-(hydroxymethyl)pyridin-4-yl)-4-methyl-3-oxopyrazin-2-yl]amino]-3-fluoro-2-[(2S)-2-methyl-4-(oxetan-3-yl)piperazin-1-yl]phenyl)prop-2-enamide] |  | 1.58 | 1.6 |
| C=CC(=O)Nc1cc(Nc2nc(-c3ccnc(N4CCc5c(sc6c5CC(C)(C)C6)C4=O)c3CO)cn(C)c2=O)ccc1N1CCN(C2COC2)C[C@@H]1C [Example 34, N-(5-[[6-(2-[4,4-dimethyl-9-oxo-7-thia-10-azatricyclo[6.4.0.0^[2,6]]dodeca-1(8),2(6)-dien-10-yl]-3-(hydroxymethyl)pyridin-4-yl)-4-methyl-3-oxopyrazin-2-yl]amino]-2-[(2S)-2-methyl-4-(oxetan-3-yl)piperazin-1-yl]phenyl)prop-2-enamide] | Irreversible/covalent inhibition |  | 0.46 |
| C=CC(=O)Nc1cc(Nc2nc(-c3ccnc(N4CCn5c(cc6c5CC(C)(C)C6)C4=O)c3C)cn(C)c2=O)ccc1N1CCN(C2CCOCC2)C[C@@H]1C [Example 40, N-(5-[[6-(2-[4,4-dimethyl-9-oxo-1,10-diazatricyclo[6.4.0.0^[2,6]]dodeca-2(6),7-dien-10-yl]-3-methylpyridin-4-yl)-4-methyl-3-oxopyrazin-2-yl]amino]-2-[(2S)-2-methyl-4-(oxan-4-yl)piperazin-1-yl]phenyl)prop-2-enamide] | Irreversible/covalent inhibition | 0.083 |  |
| C=CC(=O)Nc1cc(Nc2nc(-c3ccnc(N4CCc5c(sc6c5CCCC6)C4=O)c3C)cn(C)c2=O)ccc1N1CCN(C2COC2)C[C@@H]1C [Example 44, (S)—N-(2-(2-methyl-4-(oxetan-3-yl)piperazin-1-yl)-5-((4-methyl-6-(3-methyl-2-(1-oxo-3,4,5,6,7,8-hexahydrobenzo [4, 5]thieno [2,3-c]pyridin-2(1H)-yl)pyridin-4-yl)-3-oxo-3,4-dihydropyrazin-2-yl)amino)phenyl) acrylamide] | Irreversible/covalent inhibition | 0.98 |  |
| C=CC(=O)Nc1cc(Nc2nc(-c3ccnc(N4CCn5c(cc6c5CC(C)(C)C6)C4=O)c3C)cn(C)c2=O)ccc1N1CCN(C2COC2)CC1(C)C [Example 45, N-[2-[2,2-dimethyl-4-(oxetan-3-yl)piperazin-1-yl]-5-[[6-(2-[4,4-dimethyl-9-oxo-1,10-diazatricyclo[6.4.0.0^[2,6]]dodeca-2(6),7-dien-10-yl]-3-methylpyridin-4-yl)-4-methyl-3-oxopyrazin-2-yl]amino]phenyl]prop-2-enamide] | Irreversible/covalent inhibition | 0.36 |  |
| C=CC(=O)Nc1cc(Nc2nc(-c3ccnc(N4CCn5c(cc6c5CC(C)(C)C6)C4=O)c3C)cn(C)c2=O)cnc1N1CCN(C2COC2)C[C@@H]1C [Example 46, N-(5-[[6-(2-[4,4-dimethyl-9-oxo-1,10-diazatricyclo[6.4.0.0^[2,6]]dodeca-2(6),7-dien-10-yl]-3-methylpyridin-4-yl)-4-methyl-3-oxopyrazin-2-yl]amino]-2-[(2S)-2-methyl-4-(oxetan-3-yl)piperazin-1-yl]pyridin-3-yl)prop-2-enamide] | Irreversible/covalent inhibition | 0.16 |  |
| C=CC(=O)Nc1cc(Nc2nc(-c3ccnc(N4CCn5c(cc6c5CC(C)(C)C6)C4=O)c3CO)cn(C)c2=O)ccc1N1CCN(C2CCOCC2)CC1C (centres unmarked) [Example 47, N-(5-((6-(2-(7,7-dimethyl-1-oxo-1,3,4,6,7,8-hexahydro-2H-cyclopenta[4,5]pyrrolo[1,2-a]pyrazin-2-yl)-3-(hydroxymethyl)pyridin-4-yl)-4-methyl-3-oxo-3,4-dihydropyrazin-2-yl)amino)-2-(2-methyl-4-(tetrahydro-2H-pyran-4-yl)piperazin-1-yl)phenyl)acrylamide] | Irreversible/covalent inhibition | 0.12 |  |
| C=CC(=O)Nc1cc(Nc2nc(-c3ccnc(N4CCn5c(cc6c5CC(C)(C)C6)C4=O)c3CO)cn(C)c2=O)ccc1N1CCN(C2CCOCC2)C[C@@H]1C(F)(F)F [Example 48-R, N-(5-[[6-(2-[4,4-dimethyl-9-oxo-1,10-diazatricyclo[6.4.0.0^[2,6]]dodeca-2(6),7-dien-10-yl]-3-(hydroxymethyl)pyridin-4-yl)-4-methyl-3-oxopyrazin-2-yl]amino]-2-[(2R)-4-(oxan-4-yl)-2-(trifluoromethyl)piperazin-1-yl]phenyl)prop-2-enamide] | Irreversible/covalent inhibition | 0.065 |  |
| C=CC(=O)Nc1cc(Nc2nc(-c3ccnc(N4CCn5c(cc6c5CC(C)(C)C6)C4=O)c3C)cn(C)c2=O)ccc1N1CCN(C2CCOCC2)C[C@@H]1C(F)(F)F [Example 53-R, N-(5-[[6-(2-[4,4-dimethyl-9-oxo-1,10-diazatricyclo[6.4.0.0^[2,6]]dodeca-2(6),7-dien-10-yl]-3-methylpyridin-4-yl)-4-methyl-3-oxopyrazin-2-yl]amino]-2-[(2R)-4-(oxan-4-yl)-2-(trifluoromethyl)piperazin-1-yl]phenyl)prop-2-enamide] | Irreversible/covalent inhibition | 0.4 |  |
| C=CC(=O)Nc1cc(Nc2nc(-c3ccnc(N4CCn5c(cc6c5CC(C)(C)C6)C4=O)c3C)cn(C)c2=O)ccc1N1CCN(C2CCOCC2)C[C@H]1C(F)(F)F [Example 53-S, N-(5-[[6-(2-[4,4-dimethyl-9-oxo-1,10-diazatricyclo[6.4.0.0^[2,6]]dodeca-2(6),7-dien-10-yl]-3-methylpyridin-4-yl)-4-methyl-3-oxopyrazin-2-yl]amino]-2-[(2S)-4-(oxan-4-yl)-2-(trifluoromethyl)piperazin-1-yl]phenyl)prop-2-enamide] | Irreversible/covalent inhibition | 1 |  |
| C=CC(=O)Nc1cc(Nc2nc(-c3ccnc(N4CCc5c(sc6c5CCCC6)C4=O)c3C)cn(C)c2=O)ccc1N1CCN(C2CCOCC2)C[C@@H]1C(F)(F)F [Example 54-R, N-(5-[[4-methyl-6-(3-methyl-2-[6-oxo-8-thia-5-azatricyclo[7.4.0.0^[2,7]]trideca-1(9), 2(7)-dien-5-yl]pyridin-4-yl)-3-oxopyrazin-2-yl]amino]-2-[(2R)-4-(oxan-4-yl)-2-(trifluoromethyl)piperazin-1-yl]phenyl)prop-2-enamide] | Irreversible/covalent inhibition | 2.9 |  |
| C=CC(=O)Nc1cc(Nc2nc(-c3ccnc(N4CCc5c(sc6c5CCCC6)C4=O)c3C)cn(C)c2=O)ccc1N1CCN(C2CCOCC2)C[C@H]1C(F)(F)F [Example 54-S, N-(5-[[4-methyl-6-(3-methyl-2-[6-oxo-8-thia-5-azatricyclo[7.4.0.0^[2,7]]trideca-1(9), 2(7)-dien-5-yl]pyridin-4-yl)-3-oxopyrazin-2-yl]amino]-2-[(2S)-4-(oxan-4-yl)-2-(trifluoromethyl)piperazin-1-yl]phenyl)prop-2-enamide] | Irreversible/covalent inhibition | 4.4 |  |
| C=CC(=O)Nc1cc(Nc2nc(-c3ccnc(N4CCc5c(sc6c5CCCC6)C4=O)c3CO)cn(C)c2=O)ccc1N1CCN(C2CCOCC2)C[C@@H]1C(F)(F)F [Example 55-R, N-[5-([6-[3-(hydroxymethyl)-2-[6-oxo-8-thia-5-azatricyclo[7.4.0.0^[2,7]]trideca-1(9), 2(7)-dien-5-yl]pyridin-4-yl]-4-methyl-3-oxopyrazin-2-yl]amino)-2-[(2R)-4-(oxan-4-yl)-2-(trifluoromethyl)piperazin-1-yl]phenyl]prop-2-enamide] | Irreversible/covalent inhibition | 0.24 |  |
